The text below walks through data of US12312625B2, “Engineering strain producing cordycepin and its derivative 3′-deoxyinosine, its preparation method and application” (DALIAN UNIVERSITY, priority 2022, dated 2025).

The test relates to Pichia pastoris GS115 strain. Kind of test: Cordycepin tolerance test (growth curves of yeast in YPD medium with cordycepin). In kind it is cell-based. Conditions: 30° C., biomass measured every 2h, FIG. 5. An excerpt: In order to detect the tolerance of yeast strains to cordycepin, the inventor thus provides a method of detecting the tolerance of yeast strains to cordycepin. The Pichia pastoris GS115 strain is activated and inoculated into a 96-deep porous plate containing YPD medium, with the inoculation concentration at about OD600=0.4, supplemented with the cordycepin solutions under different concentrations (0.1, 1.0, 2.0, 5.0 g·L^−1). The broth without cordycepin is used as the control, and the porous plate is placed into BioScreene, cultured by shaking at constant temperature of 30° C., and the biomass of the strain is measured every 2h. Triplicates are set in each group, and an average value of the triplicate is calculated to draw a growth curve of yeast strains under the effect of different concentrations of cordycepin. […] As mentioned above, the cordycepin yield has exceeded 2.0 g/L, so the stress tolerance of the strain needs to be considered.

Turning to `Nc1ncnc2c1ncn2[C@@H]1O[C@H](CO)C[C@H]1O` [cordycepin], the “growth of yeast strains” value (YPD medium containing 2-5 g/L cordycepin) is listed as “severely inhibited”; the “growth of yeast strains” value (YPD medium, 1 g/L cordycepin) is “slight impact”; the “growth of yeast strains” value (YPD medium, cordycepin below 0.1 g/L) is on record as “almost has no effect”.
